Eight compounds from PMC6616128, “Liquiritin, as a Natural Inhibitor of AKR1C1, Could Interfere With the Progesterone Metabolism” (Frontiers in Physiology, 2019) can be followed below.

A word on the Km: it is the substrate concentration at which the rate is half of its maximum. The term Vmax denotes the rate approached at saturating substrate. Broadly, the IC50 is the point on the concentration scale where inhibition reaches its midpoint. As usually defined, the inhibition is the drop in the measured response relative to a control, in per cent. For orientation: % inhibition means the change of the read-out against control, counted positive when it falls.

For one assay, the target named is T1, recombinant AKR1C2 (Homo sapiens, UniProt P52895).
T1 construct: made in house; host or cells: Escherichia coli JM109
T1 sequence (P52895 1-323): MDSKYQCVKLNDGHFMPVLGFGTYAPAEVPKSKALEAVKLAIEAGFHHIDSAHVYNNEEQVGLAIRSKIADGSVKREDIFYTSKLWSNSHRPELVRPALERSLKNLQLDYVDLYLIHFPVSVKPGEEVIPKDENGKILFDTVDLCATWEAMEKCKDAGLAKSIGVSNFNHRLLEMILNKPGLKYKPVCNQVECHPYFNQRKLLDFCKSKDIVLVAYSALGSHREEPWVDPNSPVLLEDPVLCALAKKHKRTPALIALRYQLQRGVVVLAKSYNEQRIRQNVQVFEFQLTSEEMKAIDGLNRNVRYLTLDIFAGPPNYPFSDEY
The assay is described as follows: Enzyme activity (NADPH) assay with s-tetralol, recombinant GST-AKR1C2. The class given is biochemical.

The target of assay [1] is T2, recombinant AKR1C3 (Homo sapiens, UniProt P42330).
T2 sequence (P42330 1-323): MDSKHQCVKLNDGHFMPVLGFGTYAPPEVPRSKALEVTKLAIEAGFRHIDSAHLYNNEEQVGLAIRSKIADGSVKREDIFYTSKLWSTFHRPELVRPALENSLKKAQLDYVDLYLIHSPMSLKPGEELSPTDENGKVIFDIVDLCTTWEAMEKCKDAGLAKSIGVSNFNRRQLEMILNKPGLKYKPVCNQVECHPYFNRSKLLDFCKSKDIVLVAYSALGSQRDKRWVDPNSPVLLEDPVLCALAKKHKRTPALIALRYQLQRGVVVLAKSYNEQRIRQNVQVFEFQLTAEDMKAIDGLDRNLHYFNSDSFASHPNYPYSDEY
Conditions: GST-AKR1C3; S-tetralol/NADP+.
Experimental: (§1) Protein concentrations were determined using the Bradford protein assay kit.
(§2) To screen for the indicated inhibitor, the assay mixture was added with additional DMSO or 2 μM compounds. […] The inhibition patterns were determined by fitting initial velocity and inhibitor concentration into inhibition models using Graphpad Prism 6.0. All inhibition data were obtained from single experiments, with samples conducted in duplicate.
(§3) Each experiment was repeated three times and the differences among means were significant determined by Student t-text (^∗p < 0.05; ^∗∗p < 0.01; ^∗∗∗p < 0.001).

Assay [2] concerns the target T3, AKR1C1 (Homo sapiens, UniProt Q04828).
T3 sequence (Q04828 1-323): T1 sequence (P52895 1-323) with V38T, H47R, V54L, S87C, M151V, H170R, L172Q
The assay is described as follows: Enzyme activity (NADPH) assay with s-tetralol, recombinant GST-AKR1C1.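 For all read-outs here: GST-fused AKR1C1 expressed in E. coli and purified by glutathione affinity, control wells received DMSO instead of compound, duplicate samples from a single experiment.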 The class given is biochemical. Further details: made in house; host or cells: Escherichia coli JM109. Conditions: for remaining activity at 2 µM / slope / enzyme activity / inhibition at 2 µM / % inhibition / ratio (activity relative to CON): 2 μM compound; for slope: CON 0.0122; for enzyme activity: CON 192.295568.
Experimental: GST-tagged recombinant AKR1C isoforms expressed JM109 was grown in Luria-Bertani broth (100 μg⋅ml-1 ampicillin, pH = 7.0) at 37°C with orbital shaking at 220 rpm. When cells achieved an OD600 nm between 0.4 and 0.6, 0.3 mM final concentration of isopropyl β-D-1-thiogalactopyranoside (IPTG) was added to the cultures and incubated for an additional 12 h at 25°C. Cells were harvested by centrifugation at 8000 g for 10 min, and the cell pellets were stored at -80°C for storage. The pellets were resuspended in 1 × PBS, pH = 7.4 and lysed by ultrasonication at ice-cold temperature using an UH-03 union instrument. The purification of glutathione-S-transferase (GST)-fusion AKR1C1, AKR1C2, and AKR1C3 were then carried out using ÄKTA systems from GE Healthcare as described in Handbook. The recombinant proteins were eluted in 50 mM Tris–HCl (pH = 8.0) with 20 mM reduced glutathione, fresh preparedly. Protein concentrations were determined using the Bradford protein assay kit. All proteins were aliquoted and stored at -80°C containing 20% glycerol.
as §2
Firstly, we overexpressed recombinant human AKR1C in E. coli in the form of a GST-fusion protein, and then purified it by affinity chromatography on glutathione-Sepharose.
To screen for the inhibitors of AKR1C1, we developed a readily accessible indirect NADPH generating-based assay that can be used for high-throughput inhibitors screening. […] Wells were included containing enzyme and no inhibitor or 2 μM inhibitor.

In assay [3] the target is T2, recombinant AKR1C3. The assay is described as follows: biochemical.
Experimental: as §1, §2, §3
Assay [4] concerns the target T3, AKR1C1. The assay is described as follows: Progesterone metabolism in HEC-1-B cells transfected with AKR1C1 plasmid. The class given is cell-based. Further details: expressed in transfected cells; host or cells: HEC-1-B cells. Conditions: 50 μM compound, 5 μM progesterone, 6 h.
Experimental: HEC-1-B cell line was purchased from the Cell Bank of the Chinese Academy of Sciences (Shanghai, China). HEC-1-B cell was cultured in DMEM (Gibco, Grand Island, New York, United States) supplemented with 10% fetal bovine serum at 37°C in a 5% CO2 incubator. In all experiments, the cells were used at passages 4 to 10. The cells were transfected with AKR1C1 plasmid using jet PRIME reagent (Polyplus) according to manufacturer’s instructions. […] The culture media were collected immediately and 6 h later. […] A LC-20A High Performance liquid chromatography (Shimadzu, Japan) with UV detector was used for analyzing progesterone cultured from the cells. […] The mobile phase used was a mixture of mobile phase A and mobile phase B in an isocratic program as 3:7 running on an Agilent HC C18 column (150 mm × 4.6 mm, 5 μm particle size) at a constant temperature of 35°C. The flow rate was 1.0 mL/min and the detection wavelength was 245 nm. The whole analytical period was 10 min for each sample. The standard (progesterone) was dissolved in methanol. […]
Therefore, we choose to transfect cells with AKR1C1 gene for cellular study. […] Each experiment was repeated three times and the differences among means were significant determined by Student t-text (^∗p < 0.05; ^∗∗p < 0.01; ^∗∗∗p < 0.001).
Setting [5] is: Supplementary Table 1, CON = 1, read-out: ratio (activity relative to CON).
Setting [6] is: Supplementary Table 1, read-out: % inhibition.

The structures appear in SMILES notation. Positions count from the first letter of the chain named. Read-outs that look alike come from different tables or passages of the source.

Experimental for recombinant AKR1C2: as §1, §2, §3

On to `O[C@H]1CCCc2ccccc21` [S-tetralol, S-(+)-1,2,3,4-tetrahydro-1-naphthol], for which the Kcat on recombinant AKR1C2 (GST-AKR1C2, S-tetralol/NADP+) was found to be 0.0962 s⁻¹; on recombinant AKR1C3 [1], 0.553 s⁻¹; at AKR1C1 [2] (GST-AKR1C1, S-tetralol/NADP+), 0.2065 s⁻¹. The Km came out at 103 µM on recombinant AKR1C2 (GST-AKR1C2, S-tetralol/NADP+); 851 µM at recombinant AKR1C3 [1]; 23.5 µM at AKR1C1 [2] (GST-AKR1C1, S-tetralol/NADP+). Moreover, the Vmax at recombinant AKR1C2 (GST-AKR1C2, S-tetralol/NADP+) came out at 94.58 nmol/min/mg; at recombinant AKR1C3 [1], 543.90 nmol/min/mg; at AKR1C1 [2] (GST-AKR1C1, S-tetralol/NADP+) it was 203.10 nmol/min/mg. Moreover, at AKR1C1 [2] (recombinant AKR1C1), the catalytic efficiency amounted to 0.53 min^-1/μM^-1.
`O=C1C[C@@H](c2ccc(O[C@@H]3O[C@H](CO)[C@@H](O)[C@H](O)[C@H]3O)cc2)Oc2cc(O)ccc21` [Liquiritin]: the IC50 is 0.61 ± 0.05 µM at recombinant AKR1C2 (s-tetralol 103.30 μM as substrate) and 3.72 ± 0.09 µM on recombinant AKR1C3 [3]. Also, the remaining activity at 2 µM at AKR1C1 [2] (Figure 1A, read-out: % Enzyme Activity) came out at 31%; at AKR1C1 [2] (setting [5]), 31%. Also, the slope on AKR1C1 [2] (Supplementary Table 1) is reported as 0.003777. Also, on AKR1C1 [2] (Supplementary Table 1), the enzyme activity was found to be 59.5351 nmol/min/mg. In addition, the inhibition at 2 µM is 69% at AKR1C1 [2] (setting [6]) and 34% on AKR1C1 [2] (text on Figure 1A, read-out: inhibitory effect over AKR1C1 enzyme activity (% inhibition)). Moreover, on AKR1C1 [2] (s-tetralol concentration variation), the inhibition pattern result was “competitive inhibitor”. Also, the “IC50 ratio 1C1/1C2” value on AKR1C1 [2] (selectivity AKR1C1 vs AKR1C2) worked out at 1.03. Also, the “IC50 ratio 1C1/1C3” value at AKR1C1 [2] (selectivity AKR1C1 vs AKR1C3) is 0.17. The inhibition at 50 µM on AKR1C1 [4] stood at 85%.
Turning to `O=c1c(O)c(-c2ccccc2)oc2cc(O)cc(O)c12` [3,5,7-Trihydroxyflavone], on AKR1C1 [2] (Supplementary Table 1), the slope turned out to be 0.00928 and the enzyme activity is reported as 146.2707 nmol/min/mg. Also, the remaining activity at 2 µM on AKR1C1 [2] (setting [5]) was found to be 76.1%. In addition, the inhibition at 2 µM on AKR1C1 [2] (setting [6]) was determined as 23.9%.
As to `COc1cc2c(=O)c(-c3ccc(O)cc3)coc2cc1O[C@@H]1O[C@H](CO)[C@@H](O)[C@H](O)[C@H]1O` [Glycitin], at AKR1C1 [2] (Supplementary Table 1), the “% inhibition” value is reported as 64.26%, the slope is given as 0.00436 and the enzyme activity came to 68.722 nmol/min/mg. For the same compound, the “ratio (activity relative to CON)” value on AKR1C1 [2] (Supplementary Table 1, CON = 1) was found to be 0.3574.
On to `COc1ccc(-c2cc(=O)c3c(OC)c(OC)c(OC)c(OC)c3o2)cc1OC` [Nobiletin], for which, on AKR1C1 [2] (Supplementary Table 1), the slope stood at 0.0127 and the enzyme activity stood at 200.1315 nmol/min/mg. The remaining activity at 2 µM at AKR1C1 [2] (setting [5]) stood at 104%. The inhibition at 2 µM on AKR1C1 [2] (setting [6]) was -4.07%.
As for `C[C@H]1CC[C@@H]2N(C1)C[C@H]1[C@@H]3C[C@H]4[C@@H](C[C@H](O)[C@H]5C[C@@H](O)CC[C@@]54C)[C@@H]3CC[C@@H]1[C@]2(C)O` [Peimine], on AKR1C1 [2] (Supplementary Table 1), the “% inhibition” value is recorded as 4.66%, the slope is recorded as 0.0116 and the enzyme activity is recorded as 183.3338 nmol/min/mg. Also, at AKR1C1 [2] (Supplementary Table 1, CON = 1), the “ratio (activity relative to CON)” value was 0.9534.
In the case of `CC(C)=CCOc1c2occc2cc2ccc(=O)oc12` [Imperatorin], on AKR1C1 [2] (Supplementary Table 1), the slope is reported as 0.0117 and the enzyme activity amounted to 184.7298 nmol/min/mg. The remaining activity at 2 µM at AKR1C1 [2] (setting [5]) worked out at 96.1%. On AKR1C1 [2] (setting [6]), the inhibition at 2 µM was found to be 3.93%.
On to `O=C([O-])C(O)Cc1ccc(O)c(O)c1.[Na+]` (stereo not shown) [Sodium Danshensu], for which, on AKR1C1 [2] (Supplementary Table 1), the “% inhibition” value worked out at 14%, the slope stood at 0.0105 and the enzyme activity is listed as 165.3652 nmol/min/mg. At AKR1C1 [2] (Supplementary Table 1, CON = 1), the “ratio (activity relative to CON)” value is given as 0.86.
